Laboratory results: US8586588B2, “Aryl pyridazinone derivatives and their use as H3 receptor ligands” (Cephalon, Inc., priority 2006, dated 2013)
Counter-ions that a name gives are not always drawn.

target: T1, human H3 receptor (Homo sapiens, UniProt Q9Y5N1); assay: Human H3 radioligand binding ([3H]-N-alpha-methylhistamine, CHO cell membranes, SPA); details: Table A, binding constant as letter class
T1 construct: expressed in transfected cells
How it was run: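 CHO cell membranes expressing human H3 (10 μg protein/well) incubated 4 h at room temperature, in the dark, with ~1 nM [3H]-N-alpha-methylhistamine, compounds (0.01 nM-30 μM) and SPA beads in 50 mM Tris HCl pH 7.4, 5 mM MgCl2, 0.1% BSA. Non-specific binding defined with 10 μM clobenpropit.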

T1 sequence (Q9Y5N1 whole entry): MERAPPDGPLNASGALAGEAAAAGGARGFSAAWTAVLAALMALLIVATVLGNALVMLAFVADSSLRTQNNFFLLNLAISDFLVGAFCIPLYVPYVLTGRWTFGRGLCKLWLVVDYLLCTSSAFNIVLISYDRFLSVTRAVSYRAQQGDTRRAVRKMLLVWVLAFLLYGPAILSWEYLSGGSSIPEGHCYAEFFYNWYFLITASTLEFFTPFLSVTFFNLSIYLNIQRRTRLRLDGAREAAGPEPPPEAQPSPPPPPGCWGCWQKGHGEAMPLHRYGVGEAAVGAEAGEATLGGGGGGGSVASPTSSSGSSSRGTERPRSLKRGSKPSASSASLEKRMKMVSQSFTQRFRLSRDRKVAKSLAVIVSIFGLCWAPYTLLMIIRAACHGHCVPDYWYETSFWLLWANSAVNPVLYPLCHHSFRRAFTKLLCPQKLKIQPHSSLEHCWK

Ki [nM]	Compound
0.1 to 100	C[C@@H]1CCCN1CCCOc1ccc(-c2ccc(=O)[nH]n2)cc1 [Example 11, 6-{4-[3-((R)-2-Methyl-pyrrolidin-1-yl)-propoxy]-phenyl}-2H-pyridazin-3-one]
0.1 to 100	CC(C)N1CCC(COc2ccc(-c3ccc(=O)n(C)n3)cc2)CC1 [Example 68, 6-[4-(1-Isopropyl-piperidin-4-ylmethoxy)-phenyl]-2-methyl-2H-pyridazin-3-one]

same assay, conditions: Table B, binding constant as letter class

Ki [nM]	Compound
0.1 to 100	COCn1ncc(-c2ccc(OCCCN3CCC[C@H]3C)cc2C)cc1=O [Example 230, 2-Methoxymethyl-5-{2-methyl-4-[3-((R)-2-methyl-pyrrolidin-1-yl)-propoxyl]-phenyl}-2H-pyridazin-3-one]
0.1 to 100	Cc1cc(-c2ccc(OCCCN3CCC[C@H]3C)cc2)n[nH]c1=O [Example 122, 4-Methyl-6-{4-[3-((R)-2-methyl-pyrrolidin-1-yl)-propoxy]-phenyl}-2H-pyridazin-3-one]

target: T2, rat histamine H3 receptor (Rattus norvegicus, UniProt Q9QYN8); assay: Rat H3 radioligand binding ([3H]-N-alpha-methylhistamine, CHO-A3 cell membranes, SPA); details: Table A, binding constant as letter class; read-out: Rat H3 Ki
T2 construct: encoding the entire 445-amino-acid rat histamine H3 receptor; expressed in transfected cells
How it was run: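 Membranes from CHO-A3 cells stably expressing rat H3 (10 μg protein) incubated 4 h at room temperature in 50 mM Tris-HCl pH 7.4, 5 mM MgCl2, 0.1% BSA with ~1 nM [3H]-N-alpha-methylhistamine and compound (0.01 nM-30 μM). Bound radioligand read by scintillation proximity; nonspecific binding with 10 μM clobenpropit.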

T2 sequence (Q9QYN8 whole entry): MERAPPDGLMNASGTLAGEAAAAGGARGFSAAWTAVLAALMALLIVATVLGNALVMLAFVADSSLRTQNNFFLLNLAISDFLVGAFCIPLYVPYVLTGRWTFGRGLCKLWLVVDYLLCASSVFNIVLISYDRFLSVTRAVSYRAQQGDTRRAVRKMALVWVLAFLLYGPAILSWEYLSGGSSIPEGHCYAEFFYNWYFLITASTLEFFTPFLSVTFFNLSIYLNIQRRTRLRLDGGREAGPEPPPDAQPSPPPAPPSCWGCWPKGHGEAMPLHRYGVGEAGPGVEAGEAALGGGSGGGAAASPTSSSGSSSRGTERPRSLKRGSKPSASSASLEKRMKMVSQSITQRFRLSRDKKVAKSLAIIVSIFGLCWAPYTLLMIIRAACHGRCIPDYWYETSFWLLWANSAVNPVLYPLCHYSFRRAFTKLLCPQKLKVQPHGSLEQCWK

Ki [nM]	Compound
0.1 to 100	C[C@@H]1CCCN1CCCOc1ccc(-c2ccc(=O)[nH]n2)cc1 [Example 11, 6-{4-[3-((R)-2-Methyl-pyrrolidin-1-yl)-propoxy]-phenyl}-2H-pyridazin-3-one]
101 to 500	CC(C)N1CCC(COc2ccc(-c3ccc(=O)n(C)n3)cc2)CC1 [Example 68, 6-[4-(1-Isopropyl-piperidin-4-ylmethoxy)-phenyl]-2-methyl-2H-pyridazin-3-one]

same assay, conditions: Table B, binding constant as letter class; read-out: rat H3 Ki

Ki [nM]	Compound
0.1 to 100	COCn1ncc(-c2ccc(OCCCN3CCC[C@H]3C)cc2C)cc1=O [Example 230, 2-Methoxymethyl-5-{2-methyl-4-[3-((R)-2-methyl-pyrrolidin-1-yl)-propoxyl]-phenyl}-2H-pyridazin-3-one]
0.1 to 100	Cc1cc(-c2ccc(OCCCN3CCC[C@H]3C)cc2)n[nH]c1=O [Example 122, 4-Methyl-6-{4-[3-((R)-2-methyl-pyrrolidin-1-yl)-propoxy]-phenyl}-2H-pyridazin-3-one]

system: not given; assay: not given; details: not given

melting point	Compound
100 to 102 °C	CC(C)n1nc(-c2ccc(OCCCN3CCCC(C)(C)C3)cc2)c2sccc2c1=O (as salt: HCl) [Example 25, 7-{4-[3-(3,3-Dimethyl-piperidin-1-yl)-propoxy]-phenyl}-5-isopropyl-5H-thieno[2,3-d]pyridazin-4-one]
252 to 253 °C	C[C@@H]1CCCN1CCCOc1ccc(-c2ccc(=O)[nH]n2)cc1F (as salt: HCl) [Example 119, 6-{3-Fluoro-4-[3-((R)-2-methyl-pyrrolidin-1-yl)-propoxy]-phenyl}-2H-pyridazin-3-one]
207 to 209 °C	Cn1nc(-c2ccc(OCC3CCNCC3)cc2)c2ccccc2c1=O (as salt: HCl) [Example 63, 2-Methyl-4-[4-(piperidin-4-ylmethoxy)-phenyl]-2H-phthalazin-1-one]
207 to 208 °C	Cc1cc(-c2ccc(OCCCN3CCC[C@H]3C)cc2)n[nH]c1=O (as salt: HCl) [Example 122, 4-Methyl-6-{4-[3-((R)-2-methyl-pyrrolidin-1-yl)-propoxy]-phenyl}-2H-pyridazin-3-one]
123 °C (dec.)	CCCn1nc(-c2ccc(OCCCN3CCC[C@H]3CN3CCCC3)cc2)c2sccc2c1=O (as salt: HCl) [Example 36, 5-Propyl-7-{4-[3-((S)-2-pyrrolidin-1-ylmethyl-pyrrolidin-1-yl)-propoxy]-phenyl}-5H-thieno[2,3-d]pyridazin-4-one]
56 to 58 °C	C[C@@H]1CCCN1CCCOc1ccc(C2=NN(Cc3ccccc3)C(=O)CC2)cc1 (as salt: HCl) [Example 17, 2-Benzyl-6-{4-[3-((R)-2-methyl-pyrrolidin-1-yl)-propoxy]-phenyl}-4,5-dihydro-2H-pyridazin-3-one]
201 to 203 °C	Cn1nc(-c2ccc(OCCCN3CCCC3)cc2)c2ccccc2c1=O (as salt: HCl) [Example 52, 2-Methyl-4-[4-(3-pyrrolidin-1-yl-propoxy)-phenyl]-2H-phthalazin-1-one]
253 to 254 °C	Cn1ncc(-c2ccc(OCCCN3CCCCC3)cc2)cc1=O (as salt: hydrochloride) [Example 92, 2-Methyl-5-[4-(3-piperidin-1-yl-propoxy)-phenyl]-2H-pyridazin-3-one]
> 300 °C	O=C1CCC(c2ccc(OC3CCN(C4CCC4)CC3)cc2F)=NN1 (as salt: HCl) [Example 219, 6-[4-(1-Cyclobutyl-piperidin-4-yloxy)-2-fluoro-phenyl]-4,5-dihydro-2H-pyridazin-3-one]
193 to 194 °C	Cn1nc(-c2cccc(OCCCN3CCC[C@H]3CO)c2)c2c(c1=O)CCC2 (as salt: HCl) [Example 127, 4-{3-[3-((S)-2-Hydroxymethyl-pyrrolidin-1-yl)-propoxy]-phenyl}-2-methyl-2,5,6,7-tetrahydro-cyclopenta[d]pyridazin-1-one]
190 to 192 °C	Cc1cc(-c2ccc(OCCCN3CCC[C@H]3C)cc2)nn(Cc2ccccc2)c1=O (as salt: HCl) [Example 43, 2-Benzyl-4-methyl-6-{4-[3-((R)-2-methyl-pyrrolidin-1-yl)-propoxy]-phenyl}-2H-pyridazin-3-one]
223 to 224 °C	C[C@@H]1CCCN1CCCOc1ccc(-c2nn(Cc3ccc(Cl)cc3)c(=O)c3ccsc23)cc1 (as salt: HCl) [Example 38, 5-(4-Chloro-benzyl)-7-{4-[3-((R)-2-methyl-pyrrolidin-1-yl)-propoxy]-phenyl}-5H-thieno[2,3-d]pyridazin-4-one]
58 to 62 °C	CCn1nc(-c2ccc(OCCCN3CCC[C@H]3C)cc2)ccc1=O (as salt: tartrate) [Example 6, 2-Ethyl-6-{4-[3-((R)-2-methyl-pyrrolidin-1-yl)-propoxy]-phenyl}-2H-pyridazin-3-one]
197 to 198 °C	Cc1cc(-c2ccc(OCCCN3CCCCC3)cc2)nn(C(C)C)c1=O (as salt: HCl) [Example 42, 2-Isopropyl-4-methyl-6-[4-(3-piperidin-1-yl-propoxy)-phenyl]-2H-pyridazin-3-one]
253 to 254 °C	Cn1nc(-c2ccc(OCCN3CCCCC3)cc2)c2ccccc2c1=O (as salt: HCl) [Example 51, 2-Methyl-4-[4-(2-piperidin-1-yl-ethoxy)-phenyl]-2H-phthalazin-1-one]
193 to 195 °C	C[C@@H]1CCCN1CCCOc1ccc2c(c1)CCC1CC(=O)NN=C21 (stereo partly shown) (as salt: HCl) [Example 212, 8-[3-(2-Methyl-pyrrolidin-1-yl)-propoxy]-4,4a,5,6-tetrahydro-2H-benzo[h]cinnolin-3-one]
83 °C (dec.)	COC[C@@H]1CCCN1CCCOc1ccc(-c2nn(C(C)C)c(=O)c3ccsc23)cc1 (as salt: HCl) [Example 26, 5-Isopropyl-7-{4-[3-((S)-2-methoxymethyl-pyrrolidin-1-yl)propoxy]-phenyl}-5H-thieno[2,3-d]pyridazin-4-one]
144 °C	CC(C)n1nc(-c2ccc(OCCCN3CCCC3)cc2)c2sccc2c1=O (as salt: HCl) [Example 29, 5-Isopropyl-7-[4-(3-pyrrolidin-1-yl-propoxy)-phenyl]-5H-thieno[2,3-d]-pyridazin-4-one]
222 to 223 °C	C[C@@H]1CCCN1CCCOc1ccc(-c2cnn(C)c(=O)c2)cc1 (as salt: hydrochloride) [Example 91, 2-Methyl-5-{4-[3-((R)-2-methyl-pyrrolidin-1-yl)-propoxy]-phenyl}-2H-pyridazin-3-one]
285 to 288 °C	O=C1NN=C(c2ccc(OC3CCN(C4CCC4)CC3)cc2)C2CCC12 (stereo not shown) (as salt: HCl) [Example 172, 5-[4-(1-Cyclobutyl-piperidin-4-yloxy)-phenyl]-3,4-diaza-bicyclo[4.2.0]oct-4-en-2-one]
120 to 122 °C	Cn1nc(-c2ccc(OCCCN3CCC[C@H]3CO)cc2)c2c(c1=O)CCCC2 (as salt: HCl) [Example 124, 4-{4-[3-((S)-2-Hydroxymethyl-pyrrolidin-1-yl)-propoxy]-phenyl}-2-methyl-5,6,7,8-tetrahydro-2H-phthalazin-1-one]
212 to 213 °C	Cc1nn(-c2ccsc2)c(=O)cc1-c1ccc(OCCCN2CCC[C@H]2C)cc1 (as salt: HCl) [Example 108, 6-Methyl-5-{4-[3-((R)-2-methyl-pyrrolidin-1-yl)-propoxy]-phenyl}-2-thiophen-3-yl-2H-pyridazin-3-one]
118 to 122 °C	CC(C)n1nc(-c2ccc(OCCCN3CCCCC3)cc2)ccc1=O (as salt: HCl) [Example 3, 2-Isopropy1-6-[4-(3-piperidin-1-yl-propoxy)-pheny1]-2H-pyridazin-3-one]
172 to 174 °C	C[C@@H]1CCCN1CCCOc1cccc(-c2nn(C)c(=O)c3c2CCC3)c1 (as salt: HCl) [Example 125, 2-Methyl-4-{3-[3-((R)-2-methyl-pyrrolidin-1-yl)-propoxy]-phenyl}-2,5,6,7-tetrahydro-cyclopenta[d]pyridazin-1-one]
247 to 248 °C	Cn1ncc(-c2ccc(OCCCN3CCCCCC3)cc2)cc1=O (as salt: hydrochloride) [Example 93, 5-[4-(3-Azepan-1-yl-propoxy)-phenyl]-2-methyl-2H-pyridazin-3-one]
217 to 218 °C	C[C@@H]1CCCN1CCCOc1ccc(-c2nn(Cc3ccc(Cl)cc3)c(=O)c3ccccc23)cc1 (as salt: HCl) [Example 54, 2-(4-Chloro-benzyl)-4-{4-[3-((R)-2-methyl-pyrrolidin-1-yl)-propoxy]-phenyl}-2H-phthalazin-1-one]
84 °C (dec.)	CCCn1nc(-c2ccc(OCCCN3[C@H](C)CC[C@H]3C)cc2)c2sccc2c1=O (as salt: HCl) [Example 33, 7-{4-[3-((2R,5R)-2,5-Dimethyl-pyrrolidin-1-yl)-propoxy]-phenyl)-5-propyl-5H-thieno[2,3-d]pyridazin-4-one]
106 °C (dec.)	CC(C)n1nc(-c2ccc(OCCCN3[C@H](C)CC[C@H]3C)cc2)c2sccc2c1=O (as salt: HCl) [Example 31, 7-{4-[3-((2R,5R)-2,5-Dimethyl-pyrrolidin-1-yl)-propoxy]-phenyl}-5-isopropyl-5H-thieno[2,3-d]pyridazin-4-one]
212 to 214 °C	Cn1nc(-c2ccc(OCCCN3CCCCC3)cc2)c(-c2ccccc2)cc1=O (as salt: HCl) [Example 48, 2-Methyl-5-phenyl-6-[4-(3-piperidin-1-yl-propoxy)-phenyl]-2H-pyridazin-3-one]
